From patent US6511976B1, “Halogen substituted tetracyclic tetrahydrofuran derivatives” (Jannsen Pharmaceutica, N.V., priority 1997, dated 2003)

Assays:
[1] = test system: dopamine (symptoms elicited with the dopamine agonist apomorphine); experiment: ATN Test in Rats: apomorphine interaction; type: in vivo; settings: observed at 30 minutes following subcutaneous administration
Excerpt: (§1) The antipsychotic activity of the subject compounds is evidenced by the experimental data obtained in the combined apomorphine (APO), tryptamine (TRY) and norepinephrine (NOR) test in rats. Said combined apomorphine, tryptamine and norepinephrine test is described in Arch. Int. Pharmacodyn., 227, 238-253 (1977) and provides an empirical evaluation of the relative specificity with which drugs may effect particular neurotransmitter systems centrally (CNS) as well as peripherally. […] The favourable pharmacological property of the present compounds compared to the compounds specifically disclosed in WO 97/38991 lies in their ability to antagonize the central symptoms elicited by apomorphine and tryptamine.

[2] = test system: serotonin (central symptoms elicited with the serotonin agonist tryptamine); experiment: ATN Test in Rats: tryptamine interaction; type: in vivo; settings: observed at 90 minutes following subcutaneous administration
Excerpt: as §1

[3] = dose of 300 mg/kg; cited from earlier work
mCPP induced effects = experiment: mCPP Test on Rats (pre-test time T of 1 hour); type: in vivo; settings: test compound at pre-test time T of 1 hour; 1 mg/kg mCPP intravenously 15 minutes prior to test; Open Field Test
Method: Rats were treated with the test compound at a varying dose at a pre-test time T of 1 hour and with 1 mg/kg mCPP (metachlorophenylpiperazine), injected intravenously, 15 minutes prior to the test. After pre-test time T elapsed, treated rats were submitted to the “Open Field Test on Rats” as described in Drug Dev. Res. 18, 119-144 (1989), but using an infra-red light source instead of a Kleverlux® (12V/20W) light source. […] Compound numbers 2 and 8 through 16 were active at a test dose of 2.5 mg/kg or lower. Other compounds were either not tested or were active at a higher dose.

**Q.** Which “ED50, apomorphine interaction: antagonism of agitation and stereotypy” value (“ED50, apomorphine interaction” below) [1] does the source give for `CN(C)CC1CC2c3ccccc3Cc3ccccc3C2O1` (single isomer, unassigned) [b] here?
**A.** Its value is >10 mg/kg.

**Q.** What about the “ED50, tryptamine interaction: antagonism of backward locomotion” value (“ED50 … of backward locomotion” for short) [2] of the same compound?
**A.** The value was 1.3 mg/kg.

**Q.** What about the “ED50, tryptamine interaction: antagonism of bilateral clonic convulsions” value (from here on “ED50 … of bilateral clonic convulsions”) [2] of the same compound?
**A.** The value was 1.3 mg/kg.

**Q.** What does the source list for `CN(C)CC1CC2c3ccccc3Cc3ccc(F)cc3C2O1.O=C(O)C(O)C(O)C(=O)O` (stereo not drawn) [Compound 11, [B-(2α,3aβ,12bα)]-11-fluoro-3,3a,8,12b-tetrahydro-N,N-dimethyl-2H-dibenzo[3,4:6,7]cyclohepta[1,2-b]furan-2-methanamine (+)-[R-R*,R*)]-2,3-dihydroxybutanedioate (1:1)]?
**A.** ED50, apomorphine interaction: antagonism of agitation and stereotypy [1]: 2.0 mg/kg; ED50, tryptamine interaction: antagonism of backward locomotion [2]: 0.5 mg/kg; ED50, tryptamine interaction: antagonism of bilateral clonic convulsions [2]: 0.4 mg/kg

**Q.** For `CNCC1CC2c3ccccc3Cc3ccccc3C2O1.O=C(O)C(=O)O` (racemic) [(±)-3,3a,8,12b-tetrahydro-N-methyl-2H-dibenzo[3,4:6,7]-cyclohepta-[1,2-b]furan-2-methanamine oxalic acid], which activity as antidepressant [3] is on record?
**A.** Its activity as antidepressant is “inactive”.

**Q.** Which “active dose (40% or more of the tested rats showed suppression of the mCPP induced effects, mCPP-antagonism)” value (mCPP induced effects) does the source give for `CN(C)CC1CC2c3ccccc3Cc3ccc(F)cc3C2O1.Cl` (racemic) [Compound 2, (±)-(2α,3aβ,12bα)-11-fluoro-3,3a,8,12b-tetrahydro N,N-dimethyl-2H-dibenzo[3,4:6,7]cyclohepta[1,2-b]furan-2-methanamine hydrochloride] here?
**A.** The value was ≤ 2.5 mg/kg.

**Q.** For `CN(C)CC1CC2c3ccccc3Cc3ccccc3C2O1` (single isomer, unassigned) [c], which “ED50, apomorphine interaction” value [1] is on record?
**A.** The value was >10 mg/kg.

**Q.** And the “ED50 … of backward locomotion” value [2]?
**A.** Its value is 10 mg/kg.

**Q.** And the “ED50 … of bilateral clonic convulsions” value [2]?
**A.** Its value is 1.25 mg/kg.

**Q.** Which “ED50, apomorphine interaction” value [1] does the source give for `CN(C)CC1CC2c3ccccc3Cc3ccccc3C2O1` (single isomer, unassigned) [d] here?
**A.** The value was 2.7 mg/kg.

**Q.** What about the “ED50 … of backward locomotion” value [2] of the same compound?
**A.** Its value is 0.2 mg/kg.

**Q.** What about the “ED50 … of bilateral clonic convulsions” value [2] of the same compound?
**A.** The value was 0.15 mg/kg.

**Q.** Which results are given for `CN(C)CC1CC2c3ccccc3Cc3ccccc3C2O1` (single isomer, unassigned) [a]?
**A.** ED50, apomorphine interaction: antagonism of agitation and stereotypy [1]: >10 mg/kg; ED50, tryptamine interaction: antagonism of backward locomotion [2]: 10 mg/kg; ED50, tryptamine interaction: antagonism of bilateral clonic convulsions [2]: ≧10 mg/kg
